Measured values as given in publication PMC8256712, “Crystal structures of Aspergillus oryzae Rib2 deaminase: the functional mechanism involved in riboflavin biosynthesis” (IUCrJ, 2021).

Legend:
[1] = molecular target: T1, AoRib2 (Aspergillus oryzae, UniProt Q2UFA9); experiment: deaminase assay, fluorescence after diacetyl modification; type: biochemical; conditions: 310 K, 30 min; DARIPP made enzymatically in situ from GTP
T1 construct: gene rib2; full length, 222 residues; monomer
T1 sequence (Q2UFA9 1-222): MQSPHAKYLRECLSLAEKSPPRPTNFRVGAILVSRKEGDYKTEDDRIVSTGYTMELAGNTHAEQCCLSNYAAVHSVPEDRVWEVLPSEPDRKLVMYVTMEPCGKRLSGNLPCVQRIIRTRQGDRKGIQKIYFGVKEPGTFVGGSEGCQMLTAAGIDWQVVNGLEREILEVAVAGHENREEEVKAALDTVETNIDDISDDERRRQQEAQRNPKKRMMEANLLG

[2] = molecular target: T2, AoRib2_188 (Aspergillus oryzae, UniProt Q2UFA9); experiment: X-ray crystal structure, soaked, […] A; type: binding; conditions: crystals pH 6.5 (MES), soaked 20 min in 50-100 mM DARIPP; active site with Zn2+
T2 construct: gene rib2; deaminase domain, residues 1-188 of 222, C-terminal segment deleted; Zn ligands His61, Cys102, Cys112, general base Glu63
T2 sequence (Q2UFA9 1-188): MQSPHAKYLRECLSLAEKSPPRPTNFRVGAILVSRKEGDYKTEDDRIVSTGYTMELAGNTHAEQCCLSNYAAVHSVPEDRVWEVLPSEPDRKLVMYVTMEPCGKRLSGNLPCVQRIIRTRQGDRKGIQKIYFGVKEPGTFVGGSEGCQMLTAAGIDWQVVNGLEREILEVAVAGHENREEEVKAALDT

Nc1nc(NC[C@H](O)[C@H](O)[C@H](O)COP(=O)(O)O)c(N)c(=O)[nH]1 [DARIPP, 2,5-diamino-6-ribitylamino-4(3H)-pyrimidinone 5′-phosphate]
deaminase assay, fluorescence after diacetyl modification [1]: the recombinant protein is able to catalyze the conversion of DARIPP to ARIPP
X-ray crystal structure, soaked, 1.58 A [2]: DARIPP could be built nicely into strong electron density and is firmly embedded in the active site
